Measurements published in patent US12568972B2, “Pyridazinol compounds and derivatives, preparation methods, herbicidal compositions and applications thereof” (Qingdao Kingagroot Chemical Compound Co., Ltd., priority 2018, dated 2026).

What was measured:
Assay in all cases: Post-emergence test, weed control effect
Assay type in all cases: in vivo
Conditions in all cases: after 3 weeks
Chenopodiaceae = test system: Chenopodiaceae
Description: (§1) The activity level standard of harmful plant destruction (i.e. growth inhibition rate) is as follows: • Level 10: completely dead; • Level 9: above 90% growth inhibition rate; • Level 8: above 80% growth inhibition rate; • Level 7: above 70% growth inhibition rate; • Level 6: above 60% growth inhibition rate; • Level 5: above 50% growth inhibition rate; • Level 4: above 40% growth inhibition rate; • Level 3: above 30% growth inhibition rate; • Level 2: above 20% growth inhibition rate; • Level 1: below 20% growth inhibition rate; • Level 0: no effect.
(§2) The above described growth inhibition rates are fresh weight inhibition rates.
(§3) Experiment of post-emergence test: monocotyledonous and dicotyledonous weed seeds as well as main crop seeds (i.e., wheat, corn, rice, soybean, cotton, oilseed rape, millet and sorghum) were put into a plastic pot loaded with soil, then covered with 0.5-2 cm of soil, and the seeds were allowed to grow in good greenhouse environment. The test plants were treated at 2-3 leaf stage 2-3 weeks after sowing. The test compounds of the invention were dissolved in acetone respectively, then added with Tween-80 and diluted by a certain amount of water to give solutions with certain concentrations, and added with 80% vegetable oil methyl ester synergist at 1500 g/ha. The solution was sprayed to the plants with a sprayer. The plants were cultured for 3 weeks in the greenhouse.

Amaranthus retroflexus = test system: Amaranthus retroflexus
Description: as §1, §2, §3

Veronica polita = test system: Veronica polita
Description: as §1, §2, §3

Rorippa indica = test system: Rorippa indica
Description: as §1, §2, §3

SMILES	weed control effect (activity level), Chenopodiaceae (Chenopodiaceae; Dose 3000 g/ha)	weed control effect (activity level), Amaranthus retroflexus (Amaranthus retroflexus; Dose 3000 g/ha)	weed control effect (activity level), Veronica polita (Veronica polita; Dose 3000 g/ha)	weed control effect (activity level), Rorippa indica (Rorippa indica; Dose 3000 g/ha)	weed control effect, Chenopodiaceae (activity level) (Chenopodiaceae; Dose 3000 g/ha)	weed control effect, Amaranthus retroflexus (activity level) (Amaranthus retroflexus; Dose 3000 g/ha)	weed control effect, Veronica polita (activity level) (Veronica polita; Dose 3000 g/ha)	weed control effect, Rorippa indica (activity level) (Rorippa indica; Dose 3000 g/ha)	other results
COc1ccc(-c2nnc(C(F)(F)F)cc2O)cn1 [Compound 226]	–	–	–	–	–	–	–	–	weed control effect (activity level), Chenopodiaceae (Chenopodiaceae; dose 2000 g/ha): 10; weed control effect (activity level), Amaranthus retroflexus (Amaranthus retroflexus; dose 2000 g/ha): 10; weed control effect (activity level), Veronica polita (Veronica polita; dose 2000 g/ha): 10; weed control effect (activity level), Rorippa indica (Rorippa indica; dose 2000 g/ha): 10
Oc1cc(C(F)(F)F)nnc1-c1ccc(Cl)c(F)c1 [Compound 745]	10	10	10	10	–	–	–	–	–
Oc1cc(C(F)(F)F)nnc1-c1ccc(C(F)(F)F)cc1Cl [Compound 769]	10	10	10	10	–	–	–	–	–
Cc1cc(-c2nnc(C(F)(F)F)cc2O)ccc1Cl [Compound 72]	–	–	–	–	–	–	–	–	weed control effect (activity level), Chenopodiaceae (Chenopodiaceae; dose 1000 g/ha): 10; weed control effect (activity level), Amaranthus retroflexus (Amaranthus retroflexus; dose 1000 g/ha): 10; weed control effect (activity level), Veronica polita (Veronica polita; dose 1000 g/ha): 10; weed control effect (activity level), Rorippa indica (Rorippa indica; dose 1000 g/ha): 10
Oc1cc(C(F)(F)F)nnc1-c1ccc(Cl)cc1C(F)(F)F [Compound 763]	10	10	10	10	–	–	–	–	–
Cn1ncc(Br)c1-c1nnc(C(F)(F)F)cc1O [Compound 806]	10	10	10	10	–	–	–	–	–
O=C(COc1cc(C(F)(F)F)nnc1-c1ccc(F)cc1)c1ccccc1 [Compound 1-212]	–	–	–	–	10	10	10	10	–
Oc1cc(C(F)(F)F)nnc1-c1ccccc1F [Compound 26]	–	–	–	–	–	–	–	–	weed control effect (activity level), Chenopodiaceae (Chenopodiaceae; dose 1000 g/ha): 10; weed control effect (activity level), Amaranthus retroflexus (Amaranthus retroflexus; dose 1000 g/ha): 10; weed control effect (activity level), Veronica polita (Veronica polita; dose 1000 g/ha): 10; weed control effect (activity level), Rorippa indica (Rorippa indica; dose 1000 g/ha): 10
O=C(CC1CCCC1)Oc1cc(C(F)(F)F)nnc1-c1ccc(C(F)(F)F)cc1 [Compound 1-18]	–	–	–	–	10	10	10	10	–
COC(=O)CCCCC(=O)Oc1cc(C(F)(F)F)nnc1-c1ccc(F)cc1 [Compound 1-70]	–	–	–	–	10	10	10	10	–
O=S(=O)(Oc1cc(C(F)(F)F)nnc1-c1ccc(F)c(F)c1)c1ccc(Cl)cc1F [Compound 1-128]	–	–	–	–	10	10	10	10	–
Oc1cc(C(F)(F)F)nnc1-c1cncc(Cl)c1 [Compound 770]	10	10	10	10	–	–	–	–	–
Cc1ccc(-c2nnc(C(F)(F)F)cc2OC(=O)OCC(C)(C)C)c([N+](=O)[O-])c1 [Compound 1-33]	–	–	–	–	10	10	10	10	–
O=C(Oc1cc(C(F)(F)F)nnc1-c1ccc(F)c(F)c1)c1ccco1 [Compound 1-104]	–	–	–	–	10	10	10	10	–
CC(C)n1nc(F)cc1-c1nnc(C(F)(F)F)cc1O [Compound 830]	10	10	10	10	–	–	–	–	–
CC(C)CC(=O)Oc1cc(C(F)(F)F)nnc1-c1cccc(C(F)(F)F)c1 [Compound 1-8]	–	–	–	–	10	10	10	10	–
CCc1cccc(-c2nnc(C(F)(F)F)cc2OS(=O)(=O)c2nc3ccccc3[nH]2)c1 [Compound 1-153]	–	–	–	–	10	10	10	10	–

SMILES	weed control effect (activity level), Chenopodiaceae (Chenopodiaceae; Dose 3000 g/ha)	weed control effect (activity level), Amaranthus retroflexus (Amaranthus retroflexus; Dose 3000 g/ha)	weed control effect (activity level), Veronica polita (Veronica polita; Dose 3000 g/ha)	weed control effect (activity level), Rorippa indica (Rorippa indica; Dose 3000 g/ha)	weed control effect, Chenopodiaceae (activity level) (Chenopodiaceae; Dose 3000 g/ha)	weed control effect, Amaranthus retroflexus (activity level) (Amaranthus retroflexus; Dose 3000 g/ha)	weed control effect, Veronica polita (activity level) (Veronica polita; Dose 3000 g/ha)	weed control effect, Rorippa indica (activity level) (Rorippa indica; Dose 3000 g/ha)	other results
CCc1cc(-c2nnc(C(F)(F)F)cc2O)c(F)cc1[N+](=O)[O-] [Compound 179]	–	–	–	–	–	–	–	–	weed control effect (activity level), Chenopodiaceae (Chenopodiaceae; dose 2000 g/ha): 10; weed control effect (activity level), Amaranthus retroflexus (Amaranthus retroflexus; dose 2000 g/ha): 10; weed control effect (activity level), Veronica polita (Veronica polita; dose 2000 g/ha): 10; weed control effect (activity level), Rorippa indica (Rorippa indica; dose 2000 g/ha): 10
CN(C)c1ccc(-c2nnc(C(F)(F)F)cc2O)cc1 [Compound 97]	–	–	–	–	–	–	–	–	weed control effect (activity level), Chenopodiaceae (Chenopodiaceae; dose 1000 g/ha): 10; weed control effect (activity level), Amaranthus retroflexus (Amaranthus retroflexus; dose 1000 g/ha): 10; weed control effect (activity level), Veronica polita (Veronica polita; dose 1000 g/ha): 10; weed control effect (activity level), Rorippa indica (Rorippa indica; dose 1000 g/ha): 10
Oc1cc(C(F)(F)F)nnc1-c1ccc(C(F)(F)F)nc1 [Compound 762]	10	10	10	10	–	–	–	–	–
Cc1nn(C)c(-c2nnc(C(F)(F)F)cc2O)c1F [Compound 803]	10	10	10	10	–	–	–	–	–
Oc1cc(C(F)(F)F)nnc1-c1cc2ccccc2s1 [Compound 594]	10	10	10	10	–	–	–	–	–
Oc1cc(C(F)(F)F)nnc1-c1ccccc1C(F)(F)F [Compound 737]	10	10	10	10	–	–	–	–	–
O=C(Oc1cc(C(F)(F)F)nnc1-c1ccc(F)cc1)c1ccccc1O [Compound 1-85]	–	–	–	–	10	10	10	10	–
CC(C)c1ccc(-c2nnc(C(F)(F)F)cc2O)cc1 [Compound 8]	–	–	–	–	–	–	–	–	weed control effect (activity level), Chenopodiaceae (Chenopodiaceae; dose 2000 g/ha): 8 (Level 8: above 80% growth inhibition rate); weed control effect (activity level), Amaranthus retroflexus (Amaranthus retroflexus; dose 2000 g/ha): 10; weed control effect (activity level), Veronica polita (Veronica polita; dose 2000 g/ha): 10; weed control effect (activity level), Rorippa indica (Rorippa indica; dose 2000 g/ha): 10
Oc1cc(C(F)(F)F)nnc1-c1cncc2ccccc12 [Compound 637]	10	10	10	10	–	–	–	–	–
Cc1cc(C)c(S(=O)(=O)Oc2cc(C(F)(F)F)nnc2-c2ccccc2)c(C)c1 [Compound 1-131]	–	–	–	–	10	10	10	10	–
COC(=O)/C=C/c1nnc(C(F)(F)F)cc1O [Compound 1522]	10	10	–	–	–	–	–	–	–
O=C(Oc1cc(C(F)(F)F)nnc1-c1ccc(Cl)cc1)c1ccccc1Cl [Compound 1-83]	–	–	–	–	10	10	10	10	–
CCO/C=C/C(=O)Oc1cc(C(F)(F)F)nnc1-c1cccc(F)c1 [Compound 1-75]	–	–	–	–	10	10	10	10	–
O=C(Oc1cc(C(F)(F)F)nnc1-c1ccc(Cl)cc1)c1ccc2ccccc2n1 [Compound 1-116]	–	–	–	–	10	10	10	10	–
O=S(Oc1cc(C(F)(F)F)nnc1-c1ccc(F)cc1)C(F)(F)F (stereo not shown) [Compound 1-166]	–	–	–	–	10	10	10	10	–
Oc1cc(C(F)(F)F)nnc1-c1cnc(F)cc1F [Compound 989]	10	10	10	10	–	–	–	–	–
